Values of other authors in US8440245B2, “Methods for making nutritional compositions comprising curcuminoids” (priority 2009, dated 2013).

Assays:
[1] = percentage of ingested curcuminoid actually metabolized by the body
microtubule assembly = conditions: @ 40 μm

| SMILES | Metabolic Recovery [1] [%] | Inhibition of Microtubule Assembly (microtubule assembly) [% @] |
| --- | --- | --- |
| COc1cc(/C=C/C(O)=C/C(=O)/C=C/c2ccc(O)cc2)ccc1O [DMC, demethoxycurcumin] | ~50 |  |
| O=C(/C=C/c1ccc(O)cc1)CC(=O)/C=C/c1ccc(O)cc1 [BDMC, bisdemethoxycurcumin] | ~75 |  |
| COc1cc(/C=C/C(=O)CC(=O)/C=C/c2ccc(O)c(OC)c2)ccc1O [Curcumin, curcumin] |  | 50 |
